Results as given in ChEMBL document CHEMBL4393680, “Design, synthesis and biological evaluation of novel thioquinazolinone-based 2-aminobenzamide derivatives as potent histone deacetylase (HDAC) inhibitors” (Eur J Med Chem, 2019).

Columns and labels:
[1] = system: SMMC-7721; test: Antiproliferative activity against human SMMC7721 cells assessed as reduction in cell growth incubated for 72 hrs by CCK-8 assay; type: functional, cell-based; conditions: SMMC-7721, 72 h
[2] = system: A-375; test: Antiproliferative activity against human A375 cells assessed as reduction in cell growth at 8 uM incubated for 72 hrs by CCK-8 assay relative to control; type: functional; conditions: A-375, 72 h
[3] = system: A-375; test: Antiproliferative activity against human A375 cells assessed as reduction in cell growth at 2 uM incubated for 72 hrs by CCK-8 assay relative to control; type: functional; conditions: A-375, 72 h
[4] = system: HeLa; test: Antiproliferative activity against human HeLa cells assessed as reduction in cell growth at 8 uM incubated for 72 hrs by CCK-8 assay relative to control; type: functional
[5] = system: HeLa; test: Antiproliferative activity against human HeLa cells assessed as reduction in cell growth at 2 uM incubated for 72 hrs by CCK-8 assay relative to control; type: functional
[6] = system: A549; test: Antiproliferative activity against human A549 cells assessed as reduction in cell growth at 8 uM incubated for 72 hrs by CCK-8 assay relative to control; type: functional; conditions: A549, 72 h
[7] = system: A549; test: Antiproliferative activity against human A549 cells assessed as reduction in cell growth at 2 uM incubated for 72 hrs by CCK-8 assay relative to control; type: functional; conditions: A549, 72 h
[8] = system: HCT-116; test: Antiproliferative activity against human HCT116 cells assessed as reduction in cell growth at 8 uM incubated for 72 hrs by CCK-8 assay relative to control; type: functional; conditions: HCT-116, 72 h
[9] = system: HCT-116; test: Antiproliferative activity against human HCT116 cells assessed as reduction in cell growth at 2 uM incubated for 72 hrs by CCK-8 assay relative to control; type: functional; conditions: HCT-116, 72 h
[10] = system: SMMC-7721; test: Antiproliferative activity against human SMMC7721 cells assessed as reduction in cell growth at 8 uM incubated for 72 hrs by CCK-8 assay relative to control; type: functional; conditions: SMMC-7721, 72 h
[11] = system: SMMC-7721; test: Antiproliferative activity against human SMMC7721 cells assessed as reduction in cell growth at 2 uM incubated for 72 hrs by CCK-8 assay relative to control; type: functional; conditions: SMMC-7721, 72 h
[12] = system: A-375; test: Antiproliferative activity against human A375 cells assessed as reduction in cell growth incubated for 72 hrs by CCK-8 assay; type: functional, cell-based; conditions: A-375, 72 h
[13] = system: HeLa; test: Antiproliferative activity against human HeLa cells assessed as reduction in cell growth incubated for 72 hrs by CCK-8 assay; type: functional, cell-based
[14] = biological target: Histone deacetylase 2 (Homo sapiens, UniProt Q92769); test: Inhibition of human recombinant His-tagged HDAC2 ([…]) expressed in baculovirus infected insect cells using FLUOR DE LYS Green as substrate preincubated for 10 mins followed by substrate addition and measured after 30 mins by fluorescence method
[15] = system: SMMC-7721; test: Cell cycle arrest in human SMMC7721 cells assessed as accumulation at G0/G1 phase at 0.25 uM incubated for 48 hrs by propidium iodide staining based flow cytometry (Rvb=77%); type: functional
[16] = system: SMMC-7721; test: Cell cycle arrest in human SMMC7721 cells assessed as accumulation at S phase at 0.25 uM incubated for 48 hrs by propidium iodide staining based flow cytometry (Rvb=6.83%); type: functional
[17] = system: SMMC-7721; test: Cell cycle arrest in human SMMC7721 cells assessed as accumulation at G2/M phase at 0.25 uM incubated for 48 hrs by propidium iodide staining based flow cytometry (Rvb=16.17%); type: functional
[18] = system: SMMC-7721; test: Cell cycle arrest in human SMMC7721 cells assessed as accumulation at G0/G1 phase at 1 uM incubated for 48 hrs by propidium iodide staining based flow cytometry (Rvb=77%); type: functional
[19] = system: SMMC-7721; test: Cell cycle arrest in human SMMC7721 cells assessed as accumulation at S phase at 1 uM incubated for 48 hrs by propidium iodide staining based flow cytometry (Rvb=6.83%); type: functional
[20] = system: SMMC-7721; test: Cell cycle arrest in human SMMC7721 cells assessed as accumulation at G2/M phase at 1 uM incubated for 48 hrs by propidium iodide staining based flow cytometry (Rvb=16.17%); type: functional
[21] = system: SMMC-7721; test: Cell cycle arrest in human SMMC7721 cells assessed as accumulation at G0/G1 phase at 4 uM incubated for 48 hrs by propidium iodide staining based flow cytometry (Rvb=77%); type: functional
[22] = system: SMMC-7721; test: Cell cycle arrest in human SMMC7721 cells assessed as accumulation at S phase at 4 uM incubated for 48 hrs by propidium iodide staining based flow cytometry (Rvb=6.83%); type: functional
[23] = system: SMMC-7721; test: Cell cycle arrest in human SMMC7721 cells assessed as accumulation at G2/M phase at 4 uM incubated for 48 hrs by propidium iodide staining based flow cytometry (Rvb=16.17%); type: functional
[24] = system: SMMC-7721; test: Induction of apoptosis in human SMMC7721 cells assessed as viable cells at 0.25 uM incubated for 48 hrs by Annexin-V-FITC/propidium iodide staining based flow cytometry (Rvb=93.5%); type: functional; conditions: SMMC-7721, 48 h, read-out: Activity
[25] = system: SMMC-7721; test: Induction of apoptosis in human SMMC7721 cells assessed as early apoptotic cells at 0.25 uM incubated for 48 hrs by Annexin-V-FITC/propidium iodide staining based flow cytometry (Rvb=2.88%); type: functional
[26] = system: SMMC-7721; test: Induction of apoptosis in human SMMC7721 cells assessed as late apoptotic cells at 0.25 uM incubated for 48 hrs by Annexin-V-FITC/propidium iodide staining based flow cytometry (Rvb=1.73%); type: functional
[27] = system: SMMC-7721; test: Induction of apoptosis in human SMMC7721 cells assessed as necrotic cells at 0.25 uM incubated for 48 hrs by Annexin-V-FITC/propidium iodide staining based flow cytometry (Rvb=1.88%); type: functional
[28] = system: SMMC-7721; test: Induction of apoptosis in human SMMC7721 cells assessed as viable cells at 1 uM incubated for 48 hrs by Annexin-V-FITC/propidium iodide staining based flow cytometry (Rvb=93.5%); type: functional; conditions: SMMC-7721, 48 h, read-out: Activity
[29] = system: SMMC-7721; test: Induction of apoptosis in human SMMC7721 cells assessed as early apoptotic cells at 1 uM incubated for 48 hrs by Annexin-V-FITC/propidium iodide staining based flow cytometry (Rvb=2.88%); type: functional
[30] = system: SMMC-7721; test: Induction of apoptosis in human SMMC7721 cells assessed as late apoptotic cells at 1 uM incubated for 48 hrs by Annexin-V-FITC/propidium iodide staining based flow cytometry (Rvb=1.73%); type: functional
[31] = system: SMMC-7721; test: Induction of apoptosis in human SMMC7721 cells assessed as necrotic cells at 1 uM incubated for 48 hrs by Annexin-V-FITC/propidium iodide staining based flow cytometry (Rvb=1.88%); type: functional
[32] = system: SMMC-7721; test: Induction of apoptosis in human SMMC7721 cells assessed as viable cells at 4 uM incubated for 48 hrs by Annexin-V-FITC/propidium iodide staining based flow cytometry (Rvb=93.5%); type: functional; conditions: SMMC-7721, 48 h, read-out: Activity
[33] = system: SMMC-7721; test: Induction of apoptosis in human SMMC7721 cells assessed as early apoptotic cells at 4 uM incubated for 48 hrs by Annexin-V-FITC/propidium iodide staining based flow cytometry (Rvb=2.88%); type: functional
[34] = system: SMMC-7721; test: Induction of apoptosis in human SMMC7721 cells assessed as late apoptotic cells at 4 uM incubated for 48 hrs by Annexin-V-FITC/propidium iodide staining based flow cytometry (Rvb=1.73%); type: functional
[35] = system: SMMC-7721; test: Induction of apoptosis in human SMMC7721 cells assessed as necrotic cells at 4 uM incubated for 48 hrs by Annexin-V-FITC/propidium iodide staining based flow cytometry (Rvb=1.88%); type: functional
[36] = system: NIH3T3; test: Cytotoxicity against mouse NIH/3T3 cells assessed as reduction in cell viability after 48 hrs by CCK8 assay; type: cell-based; conditions: NIH3T3, 48 h
[37] = system: A549; test: Antiproliferative activity against human A549 cells assessed as reduction in cell growth incubated for 72 hrs by CCK-8 assay; type: functional, cell-based; conditions: A549, 72 h
[38] = system: HCT-116; test: Antiproliferative activity against human HCT116 cells assessed as reduction in cell growth incubated for 72 hrs by CCK-8 assay; type: functional, cell-based; conditions: HCT-116, 72 h
[39] = system: A549; test: Antitumor activity against human A549 cells xenografted in BALB/C mouse assessed as tumor growth inhibition at 25 mg/kg, ip bid for 21 days measured at 3 days interval during compound dosing relative to control; type: functional; conditions: read-out: TGI

Histone deacetylase 2, sequence (Q92769 whole entry): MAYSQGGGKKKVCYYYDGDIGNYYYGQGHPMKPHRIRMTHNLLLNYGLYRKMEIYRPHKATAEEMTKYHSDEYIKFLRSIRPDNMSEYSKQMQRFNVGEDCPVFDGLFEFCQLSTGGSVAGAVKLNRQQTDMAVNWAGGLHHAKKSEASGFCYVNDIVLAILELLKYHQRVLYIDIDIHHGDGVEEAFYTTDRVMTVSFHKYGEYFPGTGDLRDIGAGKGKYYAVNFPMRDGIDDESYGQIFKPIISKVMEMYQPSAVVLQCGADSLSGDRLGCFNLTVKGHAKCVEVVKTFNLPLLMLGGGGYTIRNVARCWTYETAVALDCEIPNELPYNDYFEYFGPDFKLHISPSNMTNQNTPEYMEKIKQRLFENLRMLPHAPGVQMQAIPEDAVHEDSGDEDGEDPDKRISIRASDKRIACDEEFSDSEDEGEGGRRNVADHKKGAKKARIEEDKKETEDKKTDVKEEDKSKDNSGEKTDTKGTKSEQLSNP

Nc1ccc(F)cc1NC(=O)c1ccc(CNC(=O)/C=C/c2cccnc2)cc1
IC50 [1]: > 26 µM | inhibition at 8 µM [2]: 63.6% | inhibition at 2 µM [3]: 27.6% | inhibition at 8 µM [4]: 52% | inhibition at 2 µM [5]: 13.4% | inhibition at 8 µM [6]: 25.5% | inhibition at 2 µM [7]: 8% | inhibition at 8 µM [8]: 87.4% | inhibition at 2 µM [9]: 61.1% | inhibition at 8 µM [10]: 58.9% | inhibition at 2 µM [11]: 42.1% | IC50 [12]: 4.21 µM | IC50 [13]: 12.6 µM | IC50 [14]: 0.31 µM | Activity [15]: 77.96% | Activity [16]: 13.28% | Activity [17]: 8.76% | Activity [18]: 76.44% | Activity [19]: 13.16% | Activity [20]: 10.4% | Activity [21]: 76.78% | Activity [22]: 13.53% | Activity [23]: 9.69% | viability at 0.25 µM [24]: 88.6% | Activity [25]: 5.74% | Activity [26]: 3.88% | Activity [27]: 1.77% | viability at 1 µM [28]: 84.7% | Activity [29]: 5.09% | Activity [30]: 7.88% | Activity [31]: 2.34% | viability at 4 µM [32]: 61.6% | Activity [33]: 15.2% | Activity [34]: 19.1% | Activity [35]: 4.08% | IC50 [36]: 2.37 µM

Cc1cccc2c(=O)n(C)c(SCc3ccc(C(=O)Nc4ccccc4N)cc3)nc12
IC50 [1]: 2.67 µM | inhibition at 8 µM [2]: 54.9% | inhibition at 2 µM [3]: 48.3% | inhibition at 8 µM [4]: 51.4% | inhibition at 2 µM [5]: 47.3% | inhibition at 8 µM [6]: 66.8% | inhibition at 2 µM [7]: 38% | inhibition at 8 µM [8]: 76.4% | inhibition at 2 µM [9]: 42.7% | inhibition at 8 µM [10]: 74.4% | inhibition at 2 µM [11]: 54.3% | IC50 [12]: 5.26 µM | IC50 [37]: 8.44 µM | IC50 [38]: 3.06 µM

CC(=O)Nc1ccc(C(=O)Nc2ccccc2N)cc1 [TACEDINALINE]
IC50 [1]: > 32 µM | inhibition at 8 µM [2]: 33.5% | inhibition at 2 µM [3]: 13.4% | inhibition at 8 µM [4]: 32.4% | inhibition at 2 µM [5]: 13.4% | inhibition at 8 µM [6]: 29.1% | inhibition at 2 µM [7]: 23.5% | inhibition at 8 µM [8]: 44% | inhibition at 2 µM [9]: 13% | inhibition at 8 µM [10]: 29.1% | inhibition at 2 µM [11]: 23.5% | IC50 [13]: 18.8 µM | Activity [15]: 76.9% | Activity [16]: 15.37% | Activity [17]: 7.73% | Activity [18]: 75.86% | Activity [19]: 17.41% | Activity [20]: 6.73% | Activity [21]: 70.12% | Activity [22]: 11.67% | Activity [23]: 18.21% | viability at 0.25 µM [24]: 88.4% | Activity [25]: 4.7% | Activity [26]: 5.37% | Activity [27]: 1.55% | viability at 1 µM [28]: 86.5% | Activity [29]: 4.99% | Activity [30]: 6.72% | Activity [31]: 1.74% | viability at 4 µM [32]: 65.7% | Activity [33]: 10.2% | Activity [34]: 19.3% | Activity [35]: 4.85% | IC50 [36]: 9.05 µM | inhibition in vivo at 25 mg/kg [39]: 46.8%
